# Source: paper PMC10220285, “Development of an assay pipeline for the discovery of novel small molecule inhibitors of human glutathione peroxidases GPX1 and GPX4” (Redox Biology, 2023)
# Where a name gives a salt, the structure may show the parent alone.
# Experiments:
# GPX1 [1] = target: T1, GPX1 (Homo sapiens, UniProt P07203); assay: GR-coupled GPX1 activity assay (NADPH fluorescence, CHP substrate); format: biochemical; conditions: IC50 of resulting CRC, Table 2; read-out: IC50 GPx1
# T1 construct: made in house; host or cells: E. coli
# T1 sequence (P07203 1-203): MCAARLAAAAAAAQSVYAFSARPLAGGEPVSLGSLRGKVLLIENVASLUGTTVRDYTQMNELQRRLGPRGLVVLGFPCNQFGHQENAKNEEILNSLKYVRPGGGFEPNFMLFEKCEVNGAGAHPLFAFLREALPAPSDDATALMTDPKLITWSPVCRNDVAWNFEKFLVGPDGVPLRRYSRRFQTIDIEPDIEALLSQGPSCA
# Description: (§1) The compound plates were prepared as described previously. Purified recombinant human GPX1, GPX2, GPX4, GR, and TXNRD1 were produced and purified as previously reported [[48], [49], [50]]. As production of GPX2 was not optimized at the onset of screening, only GPX1 and GPX4 underwent library screening, and GPX2 was used as a follow-up.
# (§2) Follow-up and orthogonal assays were run in quadruplicate unless otherwise stated. Assay schemes are illustrated in Fig. 1.
# To measure GPX activity, assays were performed in 1536-well format in black medium-binding solid-bottom plates (Greiner). These assay conditions were optimized for high-throughput screening from an assay first described by Paglia and Valentine. GPX activity is measured indirectly by coupling the reaction with GR whereby GPX reduces hydroperoxide by oxidizing two GSH to GSSG and the oxidized glutathione is recycled to its reduced state by GR and NADPH (Fig. 1B). The rate of consumption of NADPH is directly proportional to the activity of GPX and can be measured by the decrease in fluorescence at 340 nm/450 nm.
# First, 3 μL of enzyme in TES assay buffer (50 mM Tris-HCl, 2 mM EDTA (pH 7.5), 150 mM NaCl with enzyme [10 nM GPX1, 200 nM GPX4 ] and BSA [0.01%]) was added to columns 3–48 of 1536-well plates using a BioRAPTR Flying Reagent Dispenser (Let's Go Robotics (LGR), Carlsbad, CA). A no-enzyme control (0.01% BSA in TES assay buffer) was added to columns 1–2. Compounds (25 nL, library and DMSO controls) were added to each well with a pin tool (Kalypsys), and the plates were incubated for 30 min at room temperature before 1 μL of master mix (100 nM GR, 1 mM GSH, 0.5 mM NADPH in TES buffer) was added. 1 μL of cumene hydroperoxide (CHP) ([0.5 mM] in 50% EtOH) was then added within 5 min to initiate the reaction. Fluorescence at 340/450 nm was measured using a ViewLux multimodal detector (PerkinElmer, Waltham, MA) at initial t = 0 and endpoint t = 15 min (GPX1) or t = 20 min (GPX4).
# Follow-up confirmation assays were also run in 96-well format using medium binding clear 96-well SpectraPlate microplates (PerkinElmer) and NADPH absorbance at 340 nm was measured every 30 s for 30 min using an Infinite® M Nano (Tecan).
# Percent activity was determined by first calculating delta RFU (decrease in fluorescence between t = 0 and t = 20/30 min in primary GPX, GR counter-screen, and TXNRD1 assays, or increase in fluorescence between t = 0 and t = 20 min in the Monobromobimane GPX endpoint assay), and normalizing enzyme activity using median delta RFU values for DMSO-treated enzyme control, and DMSO-treated no-enzyme controls.
# Compound inhibitory activity in the qHTS assays was determined by plotting dose-response data for each sample and fitting with a four-parameter logistic fit to assess IC50 values, efficacy (maximal response), and AUC (area under the curve), as previously described. Hits were classified by the quality of the concentration-response curves (CRC). Curve classes −1.1 and −1.2 being the highest-confidence actives with complete CRCs and classes −2.1 and −2.2 being lower-confidence actives with incomplete CRCs.
# human GPX2 = target: T2, human GPX2 (Homo sapiens, UniProt P18283); assay: GPX2 activity assay (follow-up isoform specificity); format: biochemical; conditions: IC50 of resulting CRC, Table 2
# T2 construct: made in house
# T2 sequence (P18283 1-190): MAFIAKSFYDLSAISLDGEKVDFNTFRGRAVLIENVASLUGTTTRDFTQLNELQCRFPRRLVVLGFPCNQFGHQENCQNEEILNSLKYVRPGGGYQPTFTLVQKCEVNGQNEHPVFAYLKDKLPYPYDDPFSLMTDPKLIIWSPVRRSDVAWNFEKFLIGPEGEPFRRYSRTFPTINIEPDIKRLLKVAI
# Description: as §1, §2
# Previous work has shown similarities in the substrate specificities of GPX1 and GPX2, and a more unique substrate profile of GPX4 [8].
# The GPX2 isoform of human selenoprotein GPXs is found in epithelial cells and has similar substrate specificity with GPX1, but not as much with GPX4 [8]. Additionally, GPX1 and GPX2 both form homotetramers and share similarities in structural homology, although GPX2 has a much slower turnover rate.
# GPX1 [2] = target: T1, GPX1; assay: nanoDSF thermal stabilization, GPX1; format: binding; conditions: for GSH Binding (ΔTm) GPx1; shift in nanoDSF melting temperature / Tm GPX1 (nanoDSF): first or only inflection point; for thermal stabilization of GPX1: nanoDSF
# Description: Thermal stabilization of enzyme ± DMSO or ± compound was carried out in a Prometheus NT.48 instrument (NanoTemper Technologies) with an excitation wavelength of 280 nm. Intrinsic fluorescence at 330 nm and 350 nm was monitored while heating. Capillaries were filled with ∼10 μL of a solution of GPX1/4 (1 mg/mL), ± small molecule (100 μM) or DMSO, in TES buffer and placed into the instrument. The capillaries were subjected to a temperature range from 30 to 90 °C at a ramp rate of 2 °C/min. The ratio of the recorded emission intensities (350nm/330 nm) were plotted as a function of temperature. This ratio and first derivatives were calculated using the NanoTemper software and were plotted using GraphPad Prism.
# [3] = 100 μM small molecule vs DMSO control
IC50 (GPX1 [1]),IC50 (human GPX2),GSH Binding (ΔTm) GPx1; shift in nanoDSF melting temperature (GPX1 [2]; [3]),"Tm GPX1 (nanoDSF) (GPX1 [2]; 100 μM, DMSO control Tm 42.5°C)","GSH Binding (ΔTm) GPx1; shift in nanoDSF melting temperature, second inflection point (GPX1 [2]; 100 μM small molecule vs DMSO control, second inflection point)","Tm GPX1 (nanoDSF), second inflection point (GPX1 [2]; 100 μM, DMSO control Tm 42.5°C)",SMILES,thermal stabilization of GPX1 (GPX1 [2])
9.3 µM,> 20 µM,+0.4 °C,42.9 °C,–,–,CO[C@@]1(NC(=O)Cc2cccs2)C(=O)N2C(C(=O)O)=C(COC(N)=O)CS[C@@H]21 [Cefoxitin sodium salt],did not show any thermal stabilization
8.9 µM,7.7 µM,+7.5 °C,50.0 °C,–,–,COc1ccc2[nH]c([S+]([O-])Cc3ncc(C)c(OC)c3C)nc2n1 (stereo not drawn) [Tenatoprazole],significant shifts in the melting temperature of GPX1
5.2 µM,2.3 µM,-0.9 °C,41.6 °C,–,–,"O=C(O)C(S)C(S)C(=O)O (stereo not drawn) [2,3-Dimercaptosuccinic acid]",–
5.7 µM,4.7 µM,+6.3 °C,48.8 °C,+12.8 °C,55.3 °C,O=C(N[C@H]1CCS[C@H]2CCC[C@@H](C(=O)O)N2C1=O)[C@@H](S)Cc1ccccc1 [Omapatrilat],significant shifts in the melting temperature of GPX1
